From the METLIN SMRT retention time set (Domingo-Almenara et al. 2019)

Assay: gradient 5% acetonitrile 3 min, to 50% in 2 min, to 85% in 15 min, held 3 min, 100 µL/min
Details: column: Zorbax Extend-C18 2.1 x 50 mm; eluents: water / acetonitrile, 0.1% formic acid
Summary of the method: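 A Zorbax Extend-C18 column (2.1 × 50 mm, 1.8 μm) run at 100 μL/min with water and acetonitrile, both containing 0.1% formic acid, separated mixtures of ~100 pure standards. The HPLC was coupled to a quadrupole time-of-flight mass spectrometer operated in positive and negative ionization mode, with dead and dwell volumes of 40 μL and 900 μL. Each retention time was taken from a computationally picked adduct peak that was then manually inspected.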

SMILES | RP-LC retention time [s]
CN(c1cccc(NC(=O)C2CCN(S(=O)(=O)Cc3ccccc3)CC2)c1)S(C)(=O)=O | 806
CCCN1CCN(C(=O)c2ccc(-c3ccc(N4CCSCC4)nc3)cc2)CC1 | 560
CCn1cc(-c2nc(CC(=O)Nc3ccccc3F)cs2)c2cccnc21 | 874
COC(=O)c1ccc(Oc2cc(C)nc(-n3nc(C)cc3C)n2)cc1 | 912
Cc1cc(C)nc(Nc2nc(C)c3cc4c(cc3n2)OCO4)n1 | 552
COCCNC(=O)COc1cc(C)nc(-c2ccc(Cl)cc2)n1 | 828
Cn1cccc(C(=O)NC2CC(=O)N(C3CC3)C2)c1=O (centres undefined) | 547
CCc1ccc(OCC(=O)N(Cc2ccc(OC)cc2)C2CCS(=O)(=O)C2)cc1 (centres undefined) | 989
CN1c2ccc(Cl)cc2C(=O)NC12CCN(C(=O)NCc1ccc(F)cc1)CC2 | 785
O=S(=O)(NCC(c1ccccc1)S(=O)(=O)c1cccs1)c1cccs1 (centres undefined) | 878
CCn1c(C(=O)NC(C)CCc2ccccc2)cc2sc(Cl)cc21 (centres undefined) | 1270
COc1cc(OC)c(NC(=O)N2CC(n3cnnc3-c3ccccc3)C2)cc1Cl | 703
CCc1cccc(N2C=NS(=O)(=O)c3cccnc32)c1 | 836
O=C(NC1CCCCC1)C1CCCN(c2cnc3nccnc3c2)C1 (centres undefined) | 691
CCCNC(=O)c1cnn(-c2ccc(-c3nc(C(C)C)no3)cn2)c1C | 907
O=C(NCc1cccc(F)c1)C1CCN(c2nnc3ccc(Cl)cn23)CC1 | 710
CCOC(=O)c1cccc(NC(=O)N2CCN(C)c3ncccc32)c1 | 637
O=C(Cn1c(=O)oc2ccccc21)N1CCC2(CC1)NCCc1c2[nH]c2ccccc12 | 597
Cc1n[nH]c(C)c1Sc1ccccc1[N+](=O)[O-] | 739
COc1ccc(C(=O)Nc2nc(C)c3cc4c(cc3n2)OCO4)cc1 | 692
CC(C)CNC(=O)c1cn(-c2cc(-c3nc(C(C)C)no3)ccn2)cn1 | 920
COc1ccc(N2C(=O)C3N=NN(Cc4nc(-c5ccc(C)cc5)no4)C3C2=O)cc1 (centres undefined) | 992
CC(C)Cc1cc(-c2nn3c(-c4ccc(Cl)cc4)nnc3s2)n[nH]1 | 1100

SMILES | RP-LC retention time [s]
CCC1CCCCN1Cc1nc(Cn2ccn3nc(-c4ccc(F)cc4)cc3c2=O)no1 (centres undefined) | 704
O=C(c1cc(-c2ccco2)[nH]n1)N1CCN(c2ncccn2)CC1 | 640
CS(=O)(=O)c1ccc2nc(NC(=O)c3coc(NC(=O)c4cccs4)n3)sc2c1 | 685
Cc1[nH]c(C)c(S(=O)(=O)N2CCC(C(=O)N3CCc4ccccc43)CC2)c1C(=O)N1CCCC1 | 716
c1ccc(-c2nc3nc4c(c(N5CCN(C6CCCCC6)CC5)n3n2)CCCC4)cc1 | 668
CCCn1cc(C(=O)Nc2ccc(F)cc2)c(S(=O)(=O)N2CCSCC2)n1 | 1030
COC[C@@H]1OCCN(S(=O)(=O)c2cn(C)cn2)[C@H]1c1ccccc1 | 686
Cn1c(=O)oc2cc(-c3noc(-c4ccc(CS(=O)(=O)c5ccccc5)cc4)n3)ccc21 | 959
Cc1ccc(CNC(=O)Nc2cc3c(cc2N2CCCCC2)n(C)c(=O)n3C)cc1 | 610
Cc1cc(N2CCN(C(=O)c3nccc4ccccc34)CC2)nc2nncn12 | 597
Cc1ccc(C)c(S(=O)(=O)N2CCc3c(c(-c4nnc(-c5ccccc5)o4)nn3C)C2)c1 | 1020
COc1ccccc1CNC(=O)Cn1c(=O)c2cc(C3CC3)nn2c2ncccc21 | 760
NC(=O)[C@@H]1C[C@H](Oc2cccnc2)CN1C(=O)c1cccs1 | 532
COc1ccc(CN2C=C(C(=O)OCc3noc(-c4ccc(C)cc4)n3)C(C)=NS2(=O)=O)cc1 | 1170
CNC(=O)[C@@H]1CN(C(=O)c2cscn2)C[C@H]1c1nc(C)no1 | 585
CCCNC(=O)Cn1c(CNC(C)=O)nc2ccccc21 | 575
N#Cc1ccc(C(=O)N2CCCC(COc3ccc(C(=O)NC4CC4)cc3)C2)cc1 (centres undefined) | 757
Cc1ccccc1-c1nc(Cn2c(C)nc3onc(C)c3c2=O)c(C)o1 | 1120
Cc1nnc2ccc(-c3noc(Cc4cccc(Cl)c4)n3)cn12 | 871
O=C(CN1C(=O)CCCc2cc(S(=O)(=O)N3CCOCC3)ccc21)N1CCc2ccccc2C1 | 786
CC1(C(=O)NCc2ccccc2)Cn2cnc(C(=O)N3CCOCC3)c2C(=O)N1C1CC1 (centres undefined) | 605
COc1cc(NC(=O)Cn2nc(N3CCCC3)c3ccccc3c2=O)cc(OC)c1 | 918
Cc1ccc(CNC(=O)c2cccc(C3CCCN(C(=O)NC(C)C)C3)c2)cc1C (centres undefined) | 952

SMILES | RP-LC retention time [s]
Cc1ccccc1-c1nc2cnccn2c1NCCC(=O)NC(C)C | 605
CS(=O)(=O)N1CCC(C(=O)Nc2ccccc2)Oc2ccc(Cl)cc21 (centres undefined) | 887
COCCC1CCOC2(CCN(C(=O)C3CC3)CC2)C1 (centres undefined) | 710
CCn1cc(C)c(C(=O)O)c1CC(=O)N1CCN(C2CCCCC2)CC1 | 597
CC(C)c1nnc(-c2coc(S(=O)(=O)N3CCC(N4CCCCC4)CC3)c2)o1 | 625
Cc1ccc(NC(=O)N2CCC3(CC2)NC(=O)c2ccccc2O3)c(C)c1 | 750
CCc1nc(N2CCCC2=O)sc1C(=O)NCc1ccccc1Cl | 874
CC(=O)c1ccc(NC(=O)CCSc2ccc(F)cc2)cc1 | 835
COc1ccc(S(=O)(=O)N2CCCC(Cn3cnc4cccnc43)C2)cc1OC (centres undefined) | 773
Cc1cc(N2CCCC2)nc(N2CCN(C(=O)CCC3CCCCC3)CC2)n1 | 825
CCOc1ccccc1-c1noc(-c2nn(-c3ccc(C)cc3)ccc2=O)n1 | 923
Cc1noc(C2CN(C(=O)Nc3cc(Cl)ccc3C)CC23CCOCC3)n1 (centres undefined) | 760
Cc1ccc(N2CC(c3noc(-c4cccc(Cl)c4)n3)CC2=O)cc1 (centres undefined) | 1090
CC(C)CCNC(=O)N1CCN(Cc2nc3cc(C(=O)N(C)C)ccc3o2)CC1 | 614
Cc1ccccc1CNC(=O)CN1C(=O)CCCc2cc(S(=O)(=O)N3CCCC3)ccc21 | 916
CCc1noc2nc(C)n(CC(=O)NCc3ccccc3C)c(=O)c12 | 782
CCc1ccc2nc(C)cc(C(=O)NC(C)C)c2c1 | 621
O=C(CSc1nnc(COc2ccccc2)o1)NCc1ccco1 | 753
Cc1ccc(CNC(=O)C2(C)CCCN(C(=O)Nc3ccc(C)c(C)c3)C2)cc1 (centres undefined) | 897
CCN(CC)c1cc(C)nc2nc(CN3CCN(c4ccc(OC)cc4)CC3)nn12 | 571
Cc1cccc(NC(=O)CN2CCc3[nH]c4c(C)cc(F)cc4c(=O)c3C2)c1 | 626
CCOC(=O)c1cnc2c(-c3ccc(F)cc3)c(C)nn2c1N | 1020
CC(N)Cc1c[nH]c2ccc(OCc3cccs3)cc12 (centres undefined) | 734

SMILES | RP-LC retention time [s]
CC1(C(=O)NCc2ccc3c(c2)OCO3)Oc2cccnc2NC1=O (centres undefined) | 672
COc1cc(C(=O)Nc2ccc(-c3cn4ccc(C)nc4n3)cc2)cc(OC)c1OC | 634
CC1CCN(S(=O)(=O)c2ccc3c(c2)CCCC(=O)N3CC(=O)Nc2ccc(F)cc2)CC1 | 959
Cc1ccc(CN2CCN(CC(=O)Nc3ccc4c(c3)OCO4)C(=O)C2=O)cc1 | 742
CCn1nc(-c2ccccc2)c(-c2ccccc2)c(C(=O)NCCN(C)C)c1=O | 648
COc1cc(NC(=O)N2CCCC(Cn3c(C)nc4cccnc43)C2)cc(OC)c1 (centres undefined) | 639
COc1ccc(NC(=O)Nc2ccc3nc(C)n(-c4ccccc4)c(=O)c3c2)cc1OC | 679
CS(=O)(=O)N1CCCc2cc(C(=O)Nc3ccc(Br)cc3)ccc21 | 951
Cc1nnc(N2CCCC(C(=O)NCCc3ccccc3)C2)c2nn(-c3ccccc3)c(C)c12 (centres undefined) | 726
CCCn1c(=O)c(C)nc2cc(-c3noc(-c4cccc(N(C)C)c4)n3)ccc21 | 717
CC(C)(C)c1noc(-c2ccc(-n3cnc(C(=O)NC4CCCCC4)c3)nc2)n1 | 1040
CNC(=O)C1CCN(c2nc3ncn(CC(=O)NC(C)C)c(=O)c3s2)CC1 | 570
CCCn1cc(CCNS(=O)(=O)c2ccc(C(C)(C)C)cc2)c2cccnc21 | 1070
CCN1CCCn2cc(S(=O)(=O)Nc3cc(OC)cc(OC)c3)cc2C1=O | 704
Cc1cc(C)c2[nH]c3c(c(=O)c2c1)CN(CC(=O)Nc1ccc2c(c1)OCO2)CC3 | 626
CCOc1ccccc1NC(=O)N1CC(n2ccnc2C)C1 | 639
COCCCNC(=O)C1CCN(c2cnn(Cc3ccccc3)c(=O)c2)CC1 | 651
Cc1ccc(Nc2c(-c3ccc(N(C)C)cc3)nc3cnccn23)c(C)c1 | 962
CC(=O)N1CCc2cc(N3CC(C(=O)NCc4ccccc4C)CC3=O)ccc21 (centres undefined) | 707
CC(=O)N[C@@H]1CN(C(=O)Cc2cccc3ccccc23)C[C@H]1CO | 637
